Reference: patent publication US20090253669A1, “Substituted Sulfonamide Compounds” (GRUENENTHAL GmbH, priority 2008, published 2009)

How the values were obtained:
[1] = molecular target: T1, human B1R receptor (hB1R) (Homo sapiens, UniProt P46663); assay: FLIPR Ca2+ assay on hB1R-transfected CHO K1 cells, antagonistic action; type: cell-based; conditions: CHO-K1, 10 μM test substance; agonist Lys-Des-Arg9-bradykinin 0.5 nM; % of maximum achievable inhibition; read-out: hB1R [10 μM] % inhibition
T1 construct: host or cells: CHO K1 cells
T1 sequence (P46663 1-353): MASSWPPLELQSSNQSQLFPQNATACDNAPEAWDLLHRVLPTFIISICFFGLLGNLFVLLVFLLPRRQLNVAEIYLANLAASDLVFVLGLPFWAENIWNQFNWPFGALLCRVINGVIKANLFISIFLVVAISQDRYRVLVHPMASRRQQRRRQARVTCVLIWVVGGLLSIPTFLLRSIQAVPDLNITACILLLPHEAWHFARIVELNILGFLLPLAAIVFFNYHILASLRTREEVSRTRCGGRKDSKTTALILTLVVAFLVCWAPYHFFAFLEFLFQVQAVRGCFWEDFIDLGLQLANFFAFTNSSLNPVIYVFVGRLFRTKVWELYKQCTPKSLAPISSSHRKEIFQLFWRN

[2] = molecular target: T2, B1R receptor of the rat (rB1R) (Rattus norvegicus, UniProt P97583); assay: FLIPR Ca2+ assay on rB1R-transfected CHO K1 cells, antagonistic action; type: cell-based; conditions: CHO-K1, 10 μM test substance; agonist Des-Arg9-bradykinin 100 nM; % of maximum achievable inhibition; read-out: rB1R [10 μM] % inhibition
T2 construct: host or cells: CHO K1 cells
T2 sequence (P97583 1-337): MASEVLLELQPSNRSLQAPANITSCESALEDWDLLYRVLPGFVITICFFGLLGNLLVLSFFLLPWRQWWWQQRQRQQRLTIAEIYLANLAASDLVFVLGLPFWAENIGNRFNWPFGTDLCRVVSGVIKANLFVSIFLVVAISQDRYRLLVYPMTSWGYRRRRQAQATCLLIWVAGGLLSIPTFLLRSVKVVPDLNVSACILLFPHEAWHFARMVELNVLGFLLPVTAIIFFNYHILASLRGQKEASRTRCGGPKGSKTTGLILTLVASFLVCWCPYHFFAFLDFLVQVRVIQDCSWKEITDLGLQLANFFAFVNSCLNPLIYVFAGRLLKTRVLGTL

SMILES | inhibition at 10 µM [1] [%] | inhibition at 10 µM [2] [%]
CN(CCC1CCC(CCc2ccccc2)(N(C)C)CC1)C(=O)COCC1CCc2ccccc2N1S(=O)(=O)c1ccc(Cl)c(Cl)c1 (centres unmarked) [Compound 101, 2-((1-(3,4-dichlorophenylsulfonyl)-1,2,3,4-tetrahydroquinolin-2-yl)methoxy)-N-(2-(4-(dimethylamino)-4-phenethylcyclohexyl)ethyl)-N-methylacetamide] | 99 | 88
CN(CCC1CCC(CCc2ccccc2)(N(C)C)CC1)C(=O)CC(NS(=O)(=O)c1ccc2ccccc2c1)c1ccccc1 (centres unmarked) [Compound 102, N-(2-(4-(dimethylamino)-4-phenethylcyclohexyl)ethyl)-N-methyl-3-(naphthalene-2-sulfonamido)-3-phenylpropanamide] | 97 | 85
CN1CCN(C2(c3cccc(F)c3)CCN(C(=O)COCC3CCc4ccccc4N3S(=O)(=O)c3ccc(Cl)c(Cl)c3)CC2)CC1 (centres unmarked) [Compound 103, 2-((1-(3,4-dichlorophenylsulfonyl)-1,2,3,4-tetrahydroquinolin-2-yl)methoxy)-1-(4-(3-fluorophenyl)-4-(4-methylpiperazin-1-yl)piperidin-1-yl)ethanone] | 73 | 82
CN(CCC1CCC(Cc2ccccc2)(N2CCCC2)CC1)C(=O)COCC1CCc2ccccc2N1S(=O)(=O)c1ccc(Cl)c(Cl)c1 (centres unmarked) [Compound 104, N-(2-(4-benzyl-4-(pyrrolidin-1-yl)cyclohexyl)ethyl)-2-((1-(3,4-dichlorophenylsulfonyl)-1,2,3,4-tetrahydroquinolin-2-yl)methoxy)-N-methylacetamide] | 60 | 82
CN(C)C1(CCc2ccccc2)CCN(C(=O)CC(NS(=O)(=O)c2ccc3ccccc3c2)c2ccccc2)CC1 (centres unmarked) [Compound 105, N-(3-(4-(dimethylamino)-4-phenethylpiperidin-1-yl)-3-oxo-1-phenylpropyl)naphthalene-2-sulfonamide] | 83 | 81
CN(CCC1CCC(c2ccccc2)(N2CCCC2)CC1)C(=O)CC1CCCCN1S(=O)(=O)c1cccc(C(F)(F)F)c1 (centres unmarked) [Compound 106, N-methyl-N-(2-(4-phenyl-4-(pyrrolidin-1-yl)cyclohexyl)ethyl)-2-(1-(3-(trifluoromethyl)phenylsulfonyl)piperidin-2-yl)acetamide] | 101 | 79
Cc1cc(S(=O)(=O)N2CCCCC2CCC(=O)N(C)CCC2CCC(c3ccccc3)(N(C)C)CC2)c(C)cc1Cl (centres unmarked) [Compound 107, 3-(1-(4-chloro-2,5-dimethylphenylsulfonyl)piperidin-2-yl)-N-(2-(4-(dimethylamino)-4-phenylcyclohexyl)ethyl)-N-methylpropanamide] | 105 | 79
CN1CCN(C2(Cc3ccccc3)CCN(C(=O)COCC3CCc4ccccc4N3S(=O)(=O)c3ccc(Cl)c(Cl)c3)CC2)CC1 (centres unmarked) [Compound 108, 1-(4-benzyl-4-(4-methylpiperazin-1-yl)piperidin-1-yl)-2-((1-(3,4-dichlorophenylsulfonyl)-1,2,3,4-tetrahydroquinolin-2-yl)methoxy)ethanone] | 60 | 79
CN(C)C1(c2ccccc2)CCN(C(=O)COCC2CCc3ccccc3N2S(=O)(=O)c2ccc(Cl)c(Cl)c2)CC1 (centres unmarked) [Compound 109, 2-((1-(3,4-dichlorophenylsulfonyl)-1,2,3,4-tetrahydroquinolin-2-yl)methoxy)-1-(4-(dimethylamino)-4-phenylpiperidin-1-yl)ethanone] | 80 | 78
Cc1cc(S(=O)(=O)N2CCCCC2CCC(=O)N2CCC(c3ccccc3)(N3CCN(C)CC3)CC2)c(C)cc1Cl (centres unmarked) [Compound 110, 3-(1-(4-chloro-2,5-dimethylphenylsulfonyl)piperidin-2-yl)-1-(4-(4-methylpiperazin-1-yl)-4-phenylpiperidin-1-yl)propan-1-one] | 104 | 78
CN(CCC1CCC(c2ccccc2)(N(C)C)CC1)C(=O)COCC1CCc2ccccc2N1S(=O)(=O)c1ccc(Cl)c(Cl)c1 (centres unmarked) [Compound 111, 2-((1-(3,4-dichlorophenylsulfonyl)-1,2,3,4-tetrahydroquinolin-2-yl)methoxy)-N-(2-(4-(dimethylamino)-4-phenylcyclohexyl)ethyl)-N-methylacetamide] | 80 | 78
CN(CC1CCC(Cc2ccccc2)(N2CCCC2)CC1)C(=O)CC(NS(=O)(=O)c1ccc2ccccc2c1)c1ccccc1 (centres unmarked) [Compound 112, N-((4-benzyl-4-(pyrrolidin-1-yl)cyclohexyl)methyl)-N-methyl-3-(naphthalene-2-sulfonamido)-3-phenylpropanamide] | 97 | 77
O=C(CC1CCCCN1S(=O)(=O)c1cccc(C(F)(F)F)c1)N1CCC(c2ccccc2)(N2CCN(c3ccncc3)CC2)CC1 (centres unmarked) [Compound 113, 1-(4-phenyl-4-(4-(pyridin-4-yl)piperazin-1-yl)piperidin-1-yl)-2-(1-(3-(trifluoromethyl)phenylsulfonyl)piperidin-2-yl)ethanone] | 79 | 74
CN(CCC1CCC(CCc2ccccc2)(N2CCCC2)CC1)C(=O)CC(NS(=O)(=O)c1ccc2ccccc2c1)c1ccccc1 (centres unmarked) [Compound 114, N-methyl-3-(naphthalene-2-sulfonamido)-N-(2-(4-phenethyl-4-(pyrrolidin-1-yl)cyclohexyl)ethyl)-3-phenylpropanamide] | 96 | 73
CN1CCN(C2(c3ccccc3)CCN(C(=O)COCC3CCc4ccccc4N3S(=O)(=O)c3ccc(Cl)c(Cl)c3)CC2)CC1 (centres unmarked) [Compound 115, 2-((1-(3,4-dichlorophenylsulfonyl)-1,2,3,4-tetrahydroquinolin-2-yl)methoxy)-1-(4-(4-methylpiperazin-1-yl)-4-phenylpiperidin-1-yl)ethanone] | 71 | 72
CN1CCN(C2(CCc3ccccc3)CCN(C(=O)COCC3CCc4ccccc4N3S(=O)(=O)c3ccc(Cl)c(Cl)c3)CC2)CC1 (centres unmarked) [Compound 116, 2-((1-(3,4-dichlorophenylsulfonyl)-1,2,3,4-tetrahydroquinolin-2-yl)methoxy)-1-(4-(4-methylpiperazin-1-yl)-4-phenethylpiperidin-1-yl)ethanone] | 57 | 71
Cc1cc(S(=O)(=O)N2CCCCC2CCC(=O)N(C)CCC2CCC(Cc3ccccc3)(N3CCCC3)CC2)c(C)cc1Cl (centres unmarked) [Compound 117, N-(2-(4-benzyl-4-(pyrrolidin-1-yl)cyclohexyl)ethyl)-3-(1-(4-chloro-2,5-dimethylphenylsulfonyl)piperidin-2-yl)-N-methylpropanamide] | 103 | 70
CN1CCN(C2(Cc3ccccc3)CCN(C(=O)CC(NS(=O)(=O)c3ccc4ccccc4c3)c3ccccc3)CC2)CC1 (centres unmarked) [Compound 118, N-(3-(4-benzyl-4-(4-methylpiperazin-1-yl)piperidin-1-yl)-3-oxo-1-phenylpropyl)naphthalene-2-sulfonamide] | 101 | 69
CN1CCN(C2(CCc3ccccc3)CCN(C(=O)CC3CCCCN3S(=O)(=O)c3cccc(C(F)(F)F)c3)CC2)CC1 (centres unmarked) [Compound 119, 1-(4-(4-methylpiperazin-1-yl)-4-phenethylpiperidin-1-yl)-2-(1-(3-(trifluoromethyl)phenylsulfonyl)piperidin-2-yl)ethanone] | 90 | 69
CN1CCN(C2(c3cccc(F)c3)CCN(C(=O)CC(NS(=O)(=O)c3ccc4ccccc4c3)c3ccccc3)CC2)CC1 (centres unmarked) [Compound 120, N-(3-(4-(3-fluorophenyl)-4-(4-methylpiperazin-1-yl)piperidin-1-yl)-3-oxo-1-phenylpropyl)naphthalene-2-sulfonamide] | 97 | 67
CN(CCC1CCC(Cc2ccccc2)(N2CCCC2)CC1)C(=O)CC1CCCCN1S(=O)(=O)c1cccc(C(F)(F)F)c1 (centres unmarked) [Compound 121, N-(2-(4-benzyl-4-(pyrrolidin-1-yl)cyclohexyl)ethyl)-N-methyl-2-(1-(3-(trifluoromethyl)phenylsulfonyl)piperidin-2-yl)acetamide] | 102 | 66
Cc1cc(S(=O)(=O)N2CCCCC2CCC(=O)N2CCC(CCc3ccccc3)(N3CCN(C)CC3)CC2)c(C)cc1Cl (centres unmarked) [Compound 122, 3-(1-(4-chloro-2,5-dimethylphenylsulfonyl)piperidin-2-yl)-1-(4-(4-methylpiperazin-1-yl)-4-phenethylpiperidin-1-yl)propan-1-one] | 105 | 66
